Assay [1] deals with Calcium/calmodulin-dependent protein kinase type II subunit alpha (Homo sapiens) (UniProt Q9UQM7).
For assay [2], the target named is T1, Serine/threonine-protein kinase PLK4 (Homo sapiens) (UniProt O00444).
T1 sequence (whole entry): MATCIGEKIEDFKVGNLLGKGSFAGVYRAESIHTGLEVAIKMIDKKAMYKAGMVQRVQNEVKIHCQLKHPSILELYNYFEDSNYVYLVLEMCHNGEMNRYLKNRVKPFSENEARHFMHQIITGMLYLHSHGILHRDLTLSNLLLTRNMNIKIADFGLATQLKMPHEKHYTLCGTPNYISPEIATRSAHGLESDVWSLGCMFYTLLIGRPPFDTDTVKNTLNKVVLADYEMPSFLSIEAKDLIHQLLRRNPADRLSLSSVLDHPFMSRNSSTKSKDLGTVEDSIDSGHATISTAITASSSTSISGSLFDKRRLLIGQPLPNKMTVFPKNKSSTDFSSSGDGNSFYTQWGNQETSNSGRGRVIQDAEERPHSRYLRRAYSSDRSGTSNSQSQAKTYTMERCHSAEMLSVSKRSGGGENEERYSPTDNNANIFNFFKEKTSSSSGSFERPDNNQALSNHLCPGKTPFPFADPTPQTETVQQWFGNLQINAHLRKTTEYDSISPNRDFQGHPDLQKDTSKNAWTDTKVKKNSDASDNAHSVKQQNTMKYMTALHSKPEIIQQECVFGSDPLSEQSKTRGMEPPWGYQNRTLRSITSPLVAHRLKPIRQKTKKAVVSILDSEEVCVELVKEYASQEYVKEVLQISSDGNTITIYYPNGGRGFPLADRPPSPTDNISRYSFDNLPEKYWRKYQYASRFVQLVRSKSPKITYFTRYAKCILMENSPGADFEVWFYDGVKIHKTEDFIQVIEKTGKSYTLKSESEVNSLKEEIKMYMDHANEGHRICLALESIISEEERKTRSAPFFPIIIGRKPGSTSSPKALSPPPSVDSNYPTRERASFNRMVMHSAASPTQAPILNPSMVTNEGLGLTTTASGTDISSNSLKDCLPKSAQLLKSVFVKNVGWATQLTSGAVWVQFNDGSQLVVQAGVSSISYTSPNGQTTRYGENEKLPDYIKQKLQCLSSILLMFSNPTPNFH

For assay [3], the target named is Cyclin-dependent kinase 2 (Homo sapiens, UniProt P24941).
The target of assay [4] is Serine/threonine-protein kinase 26 (Homo sapiens) (UniProt Q9P289).
Chain of Serine/threonine-protein kinase 26 (Homo sapiens) (Q9P289 2-416 limits assumed): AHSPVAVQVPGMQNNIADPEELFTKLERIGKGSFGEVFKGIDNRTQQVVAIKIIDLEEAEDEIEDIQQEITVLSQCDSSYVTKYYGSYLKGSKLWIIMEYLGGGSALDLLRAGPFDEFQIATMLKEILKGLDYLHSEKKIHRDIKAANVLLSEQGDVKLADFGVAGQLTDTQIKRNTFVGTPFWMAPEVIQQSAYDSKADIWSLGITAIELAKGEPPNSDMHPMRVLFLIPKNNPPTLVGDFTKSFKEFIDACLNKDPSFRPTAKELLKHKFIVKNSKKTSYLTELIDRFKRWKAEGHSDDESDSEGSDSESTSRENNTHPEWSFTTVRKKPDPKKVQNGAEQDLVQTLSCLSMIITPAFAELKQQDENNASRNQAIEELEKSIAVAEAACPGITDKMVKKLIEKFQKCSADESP
For assay [5], the target named is Serine/threonine-protein kinase PAK 6 (Homo sapiens) (UniProt Q9NQU5).
Chain of Serine/threonine-protein kinase PAK 6 (Homo sapiens) (Q9NQU5 whole entry, looked up): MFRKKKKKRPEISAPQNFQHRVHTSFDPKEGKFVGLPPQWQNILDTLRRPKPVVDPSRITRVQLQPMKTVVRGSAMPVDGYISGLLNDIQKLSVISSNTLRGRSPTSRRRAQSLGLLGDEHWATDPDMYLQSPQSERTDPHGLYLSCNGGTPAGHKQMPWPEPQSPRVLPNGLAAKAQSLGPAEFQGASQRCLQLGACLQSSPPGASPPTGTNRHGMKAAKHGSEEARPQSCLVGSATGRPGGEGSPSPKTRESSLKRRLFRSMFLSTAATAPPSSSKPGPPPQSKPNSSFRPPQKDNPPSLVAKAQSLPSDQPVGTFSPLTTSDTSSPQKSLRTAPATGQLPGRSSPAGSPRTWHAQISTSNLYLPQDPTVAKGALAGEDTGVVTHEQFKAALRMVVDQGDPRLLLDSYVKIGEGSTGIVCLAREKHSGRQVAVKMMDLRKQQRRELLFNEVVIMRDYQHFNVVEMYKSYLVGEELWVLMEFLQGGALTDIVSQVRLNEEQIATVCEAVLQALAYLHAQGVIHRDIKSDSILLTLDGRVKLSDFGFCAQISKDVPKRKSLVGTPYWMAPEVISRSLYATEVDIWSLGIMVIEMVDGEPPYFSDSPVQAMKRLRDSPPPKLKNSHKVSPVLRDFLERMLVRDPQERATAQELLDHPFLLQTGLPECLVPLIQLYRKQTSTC
The target in assay [6] is 5'-AMP-activated protein kinase catalytic subunit alpha-2 (Homo sapiens) (UniProt P54646).
Chain of 5'-AMP-activated protein kinase catalytic subunit alpha-2 (Homo sapiens) (P54646 whole entry, looked up): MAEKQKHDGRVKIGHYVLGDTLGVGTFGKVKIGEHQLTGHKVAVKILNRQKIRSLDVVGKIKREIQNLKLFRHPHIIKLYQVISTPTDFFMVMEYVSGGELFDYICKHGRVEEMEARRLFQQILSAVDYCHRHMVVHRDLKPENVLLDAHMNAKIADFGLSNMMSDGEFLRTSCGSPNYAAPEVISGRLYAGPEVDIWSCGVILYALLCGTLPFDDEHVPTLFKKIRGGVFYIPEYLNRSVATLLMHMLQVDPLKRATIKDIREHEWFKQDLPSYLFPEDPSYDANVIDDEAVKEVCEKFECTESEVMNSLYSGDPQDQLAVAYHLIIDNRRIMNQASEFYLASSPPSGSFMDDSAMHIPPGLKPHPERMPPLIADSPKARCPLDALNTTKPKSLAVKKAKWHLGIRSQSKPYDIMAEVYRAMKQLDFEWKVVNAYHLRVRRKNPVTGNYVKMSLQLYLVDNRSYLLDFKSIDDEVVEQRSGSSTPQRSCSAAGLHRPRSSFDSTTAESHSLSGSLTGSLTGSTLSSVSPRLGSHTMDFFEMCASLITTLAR
Assay [7] addresses Serine/threonine-protein kinase PLK1 (Homo sapiens) (UniProt P53350).
The target of assay [8] is T2, Serine/threonine-protein kinase 17A (Homo sapiens) (UniProt Q9UEE5).
T2 sequence (whole entry): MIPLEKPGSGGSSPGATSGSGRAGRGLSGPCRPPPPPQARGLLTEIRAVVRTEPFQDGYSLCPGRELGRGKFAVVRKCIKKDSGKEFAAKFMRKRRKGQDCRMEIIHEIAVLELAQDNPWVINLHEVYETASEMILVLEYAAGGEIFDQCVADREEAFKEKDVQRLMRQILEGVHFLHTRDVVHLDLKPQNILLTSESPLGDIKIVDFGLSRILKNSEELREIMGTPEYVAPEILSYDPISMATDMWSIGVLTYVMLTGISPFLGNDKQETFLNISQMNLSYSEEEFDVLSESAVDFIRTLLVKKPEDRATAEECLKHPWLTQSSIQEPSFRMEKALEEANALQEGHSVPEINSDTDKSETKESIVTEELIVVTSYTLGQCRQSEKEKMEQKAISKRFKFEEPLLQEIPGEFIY

For assay [9], the target named is T3, Serine/threonine-protein kinase VRK3 (Homo sapiens) (UniProt Q8IV63).
T3 sequence (whole entry): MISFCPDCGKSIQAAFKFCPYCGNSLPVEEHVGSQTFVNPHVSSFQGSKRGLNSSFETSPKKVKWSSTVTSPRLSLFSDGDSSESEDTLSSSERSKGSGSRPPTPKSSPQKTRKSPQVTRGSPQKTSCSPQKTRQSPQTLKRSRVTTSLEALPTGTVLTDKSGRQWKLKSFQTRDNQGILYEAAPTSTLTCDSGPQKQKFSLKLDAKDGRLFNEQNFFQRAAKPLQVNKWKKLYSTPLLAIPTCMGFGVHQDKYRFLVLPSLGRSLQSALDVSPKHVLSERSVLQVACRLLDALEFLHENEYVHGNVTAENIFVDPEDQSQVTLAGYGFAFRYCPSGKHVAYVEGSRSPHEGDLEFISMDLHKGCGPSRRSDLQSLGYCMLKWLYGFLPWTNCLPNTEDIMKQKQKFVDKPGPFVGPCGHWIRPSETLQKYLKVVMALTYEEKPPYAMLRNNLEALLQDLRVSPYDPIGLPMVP

The target of assay [10] is Serine/threonine-protein kinase pim-1 (Homo sapiens) (UniProt P11309).
Chain of Serine/threonine-protein kinase pim-1 (Homo sapiens) (P11309 whole entry, looked up, canonical isoform): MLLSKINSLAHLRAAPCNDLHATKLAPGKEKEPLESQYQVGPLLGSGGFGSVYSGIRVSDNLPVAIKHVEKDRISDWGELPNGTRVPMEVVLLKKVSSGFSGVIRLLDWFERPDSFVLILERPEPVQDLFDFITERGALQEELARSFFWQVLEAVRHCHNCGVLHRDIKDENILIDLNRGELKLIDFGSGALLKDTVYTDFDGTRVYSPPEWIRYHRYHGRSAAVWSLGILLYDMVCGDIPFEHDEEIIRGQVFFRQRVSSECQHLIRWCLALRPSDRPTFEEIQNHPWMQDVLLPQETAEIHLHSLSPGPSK
Assay [11] concerns the target Casein kinase I isoform gamma-2 (Homo sapiens) (UniProt P78368).
Assay [12] deals with Serine/threonine-protein kinase PAK 5 (Homo sapiens) (UniProt Q9P286).
Assay [13] concerns the target Tyrosine-protein kinase JAK1 (Homo sapiens) (UniProt P23458).
Assay [14] concerns the target Cyclin-dependent kinase-like 1 (Homo sapiens) (UniProt Q00532).
The target in assay [15] is Dual specificity protein kinase CLK3 (Homo sapiens) (UniProt P49761).
Chain of Dual specificity protein kinase CLK3 (Homo sapiens) (P49761 whole entry, looked up, canonical isoform): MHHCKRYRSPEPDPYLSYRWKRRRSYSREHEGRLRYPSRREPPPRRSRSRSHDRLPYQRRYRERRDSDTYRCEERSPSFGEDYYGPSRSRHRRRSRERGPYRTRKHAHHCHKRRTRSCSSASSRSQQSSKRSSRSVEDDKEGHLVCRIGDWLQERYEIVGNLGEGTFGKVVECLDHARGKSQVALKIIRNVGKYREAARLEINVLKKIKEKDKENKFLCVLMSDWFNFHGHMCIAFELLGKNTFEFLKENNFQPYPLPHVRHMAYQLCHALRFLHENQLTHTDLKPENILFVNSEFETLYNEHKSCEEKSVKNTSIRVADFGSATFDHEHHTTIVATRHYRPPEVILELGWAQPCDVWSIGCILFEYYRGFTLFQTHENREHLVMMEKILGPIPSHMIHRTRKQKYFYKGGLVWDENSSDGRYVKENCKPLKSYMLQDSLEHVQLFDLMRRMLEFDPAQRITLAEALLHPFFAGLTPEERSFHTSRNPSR
For assay [16], the target named is Casein kinase I isoform gamma-3 (Homo sapiens) (UniProt Q9Y6M4).
Chain of Casein kinase I isoform gamma-3 (Homo sapiens) (Q9Y6M4 whole entry, looked up, canonical isoform): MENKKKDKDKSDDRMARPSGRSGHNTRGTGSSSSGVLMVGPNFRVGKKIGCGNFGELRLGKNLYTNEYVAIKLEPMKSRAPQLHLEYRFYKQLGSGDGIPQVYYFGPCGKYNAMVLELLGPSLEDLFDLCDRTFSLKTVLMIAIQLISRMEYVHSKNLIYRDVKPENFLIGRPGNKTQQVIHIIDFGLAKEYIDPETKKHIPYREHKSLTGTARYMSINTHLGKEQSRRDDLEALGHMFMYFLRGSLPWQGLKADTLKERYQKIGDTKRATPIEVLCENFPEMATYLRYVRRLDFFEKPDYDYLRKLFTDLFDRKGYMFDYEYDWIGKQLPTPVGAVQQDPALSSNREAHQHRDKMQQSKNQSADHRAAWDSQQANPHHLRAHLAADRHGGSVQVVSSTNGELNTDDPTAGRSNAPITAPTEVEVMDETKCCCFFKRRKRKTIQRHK
Assay [17] has as its target Mitogen-activated protein kinase 6 (Homo sapiens) (UniProt Q16659).
Assay [18] has as its target Serine/threonine-protein kinase pim-2 (Homo sapiens, UniProt Q9P1W9).
Assay [19] deals with Serine/threonine-protein kinase 10 (Homo sapiens) (UniProt O94804).
Chain of Serine/threonine-protein kinase 10 (Homo sapiens) (O94804 whole entry, looked up): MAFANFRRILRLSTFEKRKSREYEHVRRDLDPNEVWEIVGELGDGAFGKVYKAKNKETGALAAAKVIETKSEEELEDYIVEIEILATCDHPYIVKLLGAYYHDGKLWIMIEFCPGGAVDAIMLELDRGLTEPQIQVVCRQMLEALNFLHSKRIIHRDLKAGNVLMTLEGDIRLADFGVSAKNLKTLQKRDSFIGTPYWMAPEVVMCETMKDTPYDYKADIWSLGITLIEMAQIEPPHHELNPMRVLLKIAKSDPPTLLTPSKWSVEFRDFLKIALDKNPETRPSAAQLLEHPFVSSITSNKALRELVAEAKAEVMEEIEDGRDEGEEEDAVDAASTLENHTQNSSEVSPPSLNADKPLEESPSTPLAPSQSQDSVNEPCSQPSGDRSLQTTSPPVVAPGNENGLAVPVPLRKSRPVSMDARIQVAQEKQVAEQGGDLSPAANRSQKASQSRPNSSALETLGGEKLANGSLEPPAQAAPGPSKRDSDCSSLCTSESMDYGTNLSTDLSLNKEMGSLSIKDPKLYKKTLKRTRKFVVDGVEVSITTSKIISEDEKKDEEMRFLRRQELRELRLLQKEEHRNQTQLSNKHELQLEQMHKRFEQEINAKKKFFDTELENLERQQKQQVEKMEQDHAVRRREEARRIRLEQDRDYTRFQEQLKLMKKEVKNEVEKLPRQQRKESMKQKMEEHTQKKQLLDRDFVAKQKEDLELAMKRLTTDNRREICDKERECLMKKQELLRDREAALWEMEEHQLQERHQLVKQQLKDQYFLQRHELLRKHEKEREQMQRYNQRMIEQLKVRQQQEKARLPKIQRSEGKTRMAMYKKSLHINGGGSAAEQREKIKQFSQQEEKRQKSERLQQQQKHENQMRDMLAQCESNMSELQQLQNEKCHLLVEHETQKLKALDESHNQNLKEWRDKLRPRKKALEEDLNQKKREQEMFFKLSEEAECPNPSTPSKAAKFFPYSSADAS
Assay [20] deals with Serine/threonine-protein kinase Chk2 (Homo sapiens, UniProt O96017).

The source of these data is ChEMBL document CHEMBL1145498, “A systematic interaction map of validated kinase inhibitors with Ser/Thr kinases” (Proc Natl Acad Sci U S A, 2007).

Chain of Serine/threonine-protein kinase pim-2 (Q9P1W9 whole entry, looked up): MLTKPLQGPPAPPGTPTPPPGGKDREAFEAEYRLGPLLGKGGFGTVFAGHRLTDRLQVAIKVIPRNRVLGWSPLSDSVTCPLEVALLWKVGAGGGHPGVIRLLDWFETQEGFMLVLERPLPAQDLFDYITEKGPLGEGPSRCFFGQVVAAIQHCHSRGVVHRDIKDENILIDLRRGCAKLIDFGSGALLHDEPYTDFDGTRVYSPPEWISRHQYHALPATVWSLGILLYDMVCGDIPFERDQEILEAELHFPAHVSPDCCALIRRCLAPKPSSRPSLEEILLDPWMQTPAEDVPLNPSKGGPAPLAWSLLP
Chain of Cyclin-dependent kinase-like 1 (Homo sapiens) (Q00532 whole entry): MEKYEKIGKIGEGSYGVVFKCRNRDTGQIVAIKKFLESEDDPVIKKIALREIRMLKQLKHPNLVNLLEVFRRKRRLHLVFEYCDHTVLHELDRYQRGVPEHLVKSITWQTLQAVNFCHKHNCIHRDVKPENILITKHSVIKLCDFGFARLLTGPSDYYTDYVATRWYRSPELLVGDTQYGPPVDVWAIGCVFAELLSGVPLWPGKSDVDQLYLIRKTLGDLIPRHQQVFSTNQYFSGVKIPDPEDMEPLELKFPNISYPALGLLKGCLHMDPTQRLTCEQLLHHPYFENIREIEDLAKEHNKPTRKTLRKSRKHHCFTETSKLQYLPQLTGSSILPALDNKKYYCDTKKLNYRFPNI
Chain of Casein kinase I isoform gamma-2 (Homo sapiens) (P78368 whole entry, looked up, canonical isoform): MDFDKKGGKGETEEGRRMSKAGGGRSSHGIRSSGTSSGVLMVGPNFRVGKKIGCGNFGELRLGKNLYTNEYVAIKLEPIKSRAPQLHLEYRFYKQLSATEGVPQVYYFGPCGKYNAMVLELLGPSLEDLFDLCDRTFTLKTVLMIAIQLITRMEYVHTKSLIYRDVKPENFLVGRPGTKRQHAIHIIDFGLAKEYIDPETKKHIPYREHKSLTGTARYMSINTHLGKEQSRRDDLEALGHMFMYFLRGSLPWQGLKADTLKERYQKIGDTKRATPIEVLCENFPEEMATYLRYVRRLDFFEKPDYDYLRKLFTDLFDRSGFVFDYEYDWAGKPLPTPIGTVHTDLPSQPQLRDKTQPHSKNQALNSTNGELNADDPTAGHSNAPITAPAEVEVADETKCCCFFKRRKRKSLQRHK

For `NCCNS(=O)(=O)c1cccc2c(Cl)cccc12`, the ΔTm in assay [1] was 0.7 °C; in [2], 0.6 °C; in assay [3], 0.1 °C; in assay [4], -0.1 °C; in [5] it was 0.2 °C; in assay [6] it was -0.2 °C. Also, the ΔTm in assay [7] came to 0.4 °C; in assay [8], 1 °C; in assay [9], 0.3 °C; in assay [10], 2.9 °C; in [11] it was 0 °C; in assay [12] it was 0.1 °C. Moreover, the shift in melting temperature (ΔTm) in [13] is 0.2 °C; in assay [14], -0.1 °C; in [15] it was -0.2 °C; in assay [16], 0.4 °C; in [17], 0.3 °C; in [18] it was 1.7 °C. Also, the results for the ΔTm in assay [19] and in [20] were 0.8 °C and 0.2 °C, respectively.

On to `C[C@@H]1C[C@H]2O[C@@H]2/C=C\C=C\C(=O)Cc2c(Cl)c(O)cc(O)c2C(=O)O1` [RADICICOL], for which the ΔTm is 0 °C in [1]; 0.5 °C in [2]; 0.5 °C in assay [3]; 0.9 °C in assay [4]; 0.3 °C in assay [5]; -0.3 °C in [6]. The shift in melting temperature (ΔTm) in [7] was 0.2 °C; in [8], 1 °C; in assay [9], -0.4 °C; in assay [10], -0.1 °C; in assay [11] it was 0 °C; in [12] it was 0.6 °C. In addition, the ΔTm is -0.2 °C in [13]; -0.2 °C in [14]; 0 °C in assay [15]; 0.1 °C in [16]; 0.4 °C in [17]; 0.1 °C in [18]. The figures for the shift in melting temperature (ΔTm) in assay [19] and in assay [20] were -0.4 °C and 1.6 °C, respectively.
